The subject of this test is CD8F1 mice, subcutaneous mammary adenocarcinoma, T/C%. Put plainly: NCI In Vivo Anticancer Drug Screen. Data for tumor model Mammary Adenocarcinoma CD8F1 (subcutaneous) in CD8F1. Conditions: higher = larger tumour. In a few lines:
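Transplantable tumors were established in mice, animals were dosed with compound or vehicle, and survival or tumor size was then measured in both groups. The treated result was divided by the control result.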

Here are results for ten molecules from PubChem BioAssay AID220 (DTP/NCI, 2004).

“And” between values parts separate entries of the source, which are not always exact repeats. Identical values can stand only once. Inconclusive results are not listed.

`O=C1NC2(CCCCC2)C(=O)N1CCN(CCCl)CCCl`: the T/C was 81 % of control (endpoint: mean tumor weight, dose: 3.0 mg/kg/injection, schedule: Q07DX005 (ip), vehicle: Klucel (hydroxypropylcellulose) (HPC)); 82 % of control (endpoint: mean tumor weight, dose: 6.0 mg/kg/injection, schedule: Q07DX005 (ip), vehicle: Klucel (hydroxypropylcellulose) (HPC)); 42 % of control (endpoint: mean tumor weight, dose: 12.0 mg/kg/injection, schedule: Q07DX005 (ip), vehicle: Klucel (hydroxypropylcellulose) (HPC)); 26 % of control (endpoint: mean tumor weight, dose: 24.0 mg/kg/injection, schedule: Q07DX005 (ip), vehicle: Klucel (hydroxypropylcellulose) (HPC)); 68 % of control (endpoint: median tumor weight (est.), dose: 3.0 mg/kg/injection, schedule: Q07DX005 (ip), vehicle: saline); 75 % of control (endpoint: median tumor weight (est.), dose: 6.0 mg/kg/injection, schedule: Q07DX005 (ip), vehicle: saline). In addition, the T/C reads like this: (endpoint: median tumor weight (est.), dose: 12.0 mg/kg/injection, schedule: Q07DX005 (ip), vehicle: saline) 45 % of control; (endpoint: median tumor weight (est.), dose: 24.0 mg/kg/injection, schedule: Q07DX005 (ip), vehicle: saline) 6 % of control; (endpoint: median tumor weight change, dose: 9.0 mg/kg/injection, schedule: Q01DX001 (ip), vehicle: saline with Tween-80) 60 % of control; (endpoint: median tumor weight change, dose: 9.38 mg/kg/injection, schedule: Q01DX001 (ip), vehicle: saline with Tween-80) 75 % of control; (endpoint: median tumor weight change, dose: 18.0 mg/kg/injection, schedule: Q01DX001 (ip), vehicle: saline with Tween-80) 62 % of control; (endpoint: median tumor weight change, dose: 37.0 mg/kg/injection, schedule: Q01DX001 (ip), vehicle: saline with Tween-80) 32 % of control. In addition, where the note is “endpoint: median tumor weight change, dose: 75.0 mg/kg/injection, schedule: Q01DX001 (ip), vehicle: saline with Tween-80”, the T/C was 19 % of control.

Regarding `COC1=C2C[C@@H](C)C[C@@H](OC)[C@@H](O)[C@H](C)/C=C(\C)[C@@H](OC(N)=O)[C@H](OC)/C=C\C=C(/C)C(=O)NC(=CC1=O)C2=O`, the T/C (endpoint: median tumor weight change, dose: 1.25 mg/kg/injection, schedule: Q01DX001 (ip), vehicle: saline with Tween-80) was 93 % of control and 98 % of control; the T/C (endpoint: median tumor weight change, dose: 2.5 mg/kg/injection, schedule: Q01DX001 (ip), vehicle: saline with Tween-80) is 117 % of control and 121 % of control; the T/C (endpoint: median tumor weight change, dose: 5.0 mg/kg/injection, schedule: Q01DX001 (ip), vehicle: saline with Tween-80) was 46 % of control.

Turning to `Oc1c(Cl)cc(Cl)cc1C=NCCSc1ccc(Cl)cc1`, the T/C by setting is: (endpoint: median tumor weight change, dose: 62.5 mg/kg/injection, schedule: Q01DX001 (ip), vehicle: Klucel (hydroxypropylcellulose) (HPC)) 99 % of control and 100 % of control; (endpoint: median tumor weight change, dose: 125.0 mg/kg/injection, schedule: Q01DX001 (ip), vehicle: Klucel (hydroxypropylcellulose) (HPC)) 89 % of control and 104 % of control; (endpoint: median tumor weight change, dose: 250.0 mg/kg/injection, schedule: Q01DX001 (ip), vehicle: Klucel (hydroxypropylcellulose) (HPC)) 87 % of control and 103 % of control.

Regarding `C[n+]1cccc(NC(=O)c2ccc(NC(=O)C34CCC(C(=O)Nc5ccc(C(=O)Nc6ccc[n+](C)c6)cc5)(CC3)CC4)cc2)c1`, the T/C is 57 % of control and 78 % of control (2×) (endpoint: median tumor weight change, dose: 50.0 mg/kg/injection, schedule: Q01DX001 (ip), vehicle: saline with Tween-80); -66 % of control (endpoint: median tumor weight change, dose: 200.0 mg/kg/injection, schedule: Q01DX001 (ip), vehicle: saline with Tween-80).

As to `CC1OC(=O)C(C(C)C)NC(=O)C(C(C)C)OC(=O)C(C(C)C)NC(=O)C(C)OC(=O)C(C(C)C)NC(=O)C(C(C)C)OC(=O)C(C(C)C)NC(=O)C(C)OC(=O)C(C(C)C)NC(=O)C(C(C)C)OC(=O)C(C(C)C)NC1=O` (stereo not drawn), the T/C runs as follows: (endpoint: mean tumor weight, dose: 1.0 mg/kg/injection, schedule: Q02DX007 (ip), vehicle: saline) 119 % of control; (endpoint: mean tumor weight, dose: 1.0 mg/kg/injection, schedule: Q07DX006 (ip), vehicle: saline) 49 % of control; (endpoint: mean tumor weight, dose: 2.0 mg/kg/injection, schedule: Q02DX007 (ip), vehicle: saline) 87 % of control; (endpoint: mean tumor weight, dose: 2.0 mg/kg/injection, schedule: Q07DX006 (ip), vehicle: saline) 110 % of control; (endpoint: mean tumor weight, dose: 4.0 mg/kg/injection, schedule: Q02DX007 (ip), vehicle: saline) 97 % of control; (endpoint: mean tumor weight, dose: 4.0 mg/kg/injection, schedule: Q07DX006 (ip), vehicle: saline) 165 % of control. Further, the T/C reads like this: (endpoint: mean tumor weight, dose: 8.0 mg/kg/injection, schedule: Q02DX007 (ip), vehicle: saline) 103 % of control; (endpoint: mean tumor weight, dose: 8.0 mg/kg/injection, schedule: Q07DX006 (ip), vehicle: saline) 84 % of control; (endpoint: mean tumor weight, dose: 16.0 mg/kg/injection, schedule: Q02DX007 (ip), vehicle: saline) 116 % of control; (endpoint: mean tumor weight, dose: 16.0 mg/kg/injection, schedule: Q07DX006 (ip), vehicle: saline) 70 % of control; (endpoint: median tumor weight (est.), dose: 1.25 mg/kg/injection, schedule: Q07DX005 (ip), vehicle: saline with Tween-80) 69 % of control; (endpoint: median tumor weight (est.), dose: 2.5 mg/kg/injection, schedule: Q07DX005 (ip), vehicle: saline with Tween-80) 34 % of control. Further, the T/C reads like this: (endpoint: median tumor weight (est.), dose: 5.0 mg/kg/injection, schedule: Q07DX005 (ip), vehicle: saline with Tween-80) 86 % of control; (endpoint: median tumor weight (est.), dose: 10.0 mg/kg/injection, schedule: Q07DX005 (ip), vehicle: saline with Tween-80) 114 % of control; (endpoint: median tumor weight (est.), dose: 20.0 mg/kg/injection, schedule: Q07DX005 (ip), vehicle: saline with Tween-80) 74 % of control.

Consider `CO[C@H](/C(C)=C/C=C/C(C)=C/c1coc(C)n1)[C@H](C)[C@H]1C[C@@H](O)[C@@]2(C)O[C@H]2/C=C/[C@@H](C)[C@@H]2C[C@@H](CC(=O)O2)C[C@H]2O[C@@H]2C(=O)O1`, for which the T/C (endpoint: median tumor weight change, dose: 0.06 mg/kg/injection, schedule: Q01DX001 (ip), vehicle: Klucel (hydroxypropylcellulose) (HPC)) is 175 % of control; the T/C (endpoint: median tumor weight change, dose: 0.25 mg/kg/injection, schedule: Q01DX001 (ip), vehicle: Klucel (hydroxypropylcellulose) (HPC)) is 83 % of control; the T/C (endpoint: median tumor weight change, dose: 0.5 mg/kg/injection, schedule: Q01DX001 (ip), vehicle: Klucel (hydroxypropylcellulose) (HPC)) was 110 % of control; the T/C (endpoint: median tumor weight change, dose: 1.0 mg/kg/injection, schedule: Q01DX001 (ip), vehicle: Klucel (hydroxypropylcellulose) (HPC)) was 101 % of control.

Regarding `[Na+]`, the T/C was 68 % of control (endpoint: median tumor weight change, dose: 75.0 mg/kg/injection, schedule: Q01DX001 (ip), vehicle: water); 93 % of control (endpoint: median tumor weight change, dose: 150.0 mg/kg/injection, schedule: Q01DX001 (ip), vehicle: water); 66 % of control (endpoint: median tumor weight change, dose: 300.0 mg/kg/injection, schedule: Q01DX001 (ip), vehicle: water); 85 % of control (endpoint: median tumor weight change, dose: 600.0 mg/kg/injection, schedule: Q01DX001 (ip), vehicle: water); 67 % of control (endpoint: median tumor weight change, dose: 1200.0 mg/kg/injection, schedule: Q01DX001 (ip), vehicle: water).

On to `O=C(c1cccnc1)c1cc(-c2ccccn2)c(=O)n2ccccc12`, for which the T/C is 182 % of control (endpoint: median tumor weight change, dose: 125.0 mg/kg/injection, schedule: Q01DX001 (ip), vehicle: saline with Tween-80); 77 % of control (endpoint: median tumor weight change, dose: 250.0 mg/kg/injection, schedule: Q01DX001 (ip), vehicle: saline with Tween-80); 78 % of control (endpoint: median tumor weight change, dose: 500.0 mg/kg/injection, schedule: Q01DX001 (ip), vehicle: saline with Tween-80); 56 % of control (endpoint: median tumor weight change, dose: 1000.0 mg/kg/injection, schedule: Q01DX001 (ip), vehicle: saline with Tween-80); 110 % of control (endpoint: median tumor weight change, dose: 2000.0 mg/kg/injection, schedule: Q01DX001 (ip), vehicle: saline with Tween-80).

Consider `Cn1cnc([N+](=O)[O-])c1S(=O)(=O)NCN1CCOCC1`, for which the T/C by setting is: (endpoint: median tumor weight (est.), dose: 12.5 mg/kg/injection, schedule: Q07DX005 (ip), vehicle: Klucel (hydroxypropylcellulose) (HPC)) 103 % of control; (endpoint: median tumor weight (est.), dose: 25.0 mg/kg/injection, schedule: Q07DX005 (ip), vehicle: Klucel (hydroxypropylcellulose) (HPC)) 164 % of control and 185 % of control; (endpoint: median tumor weight (est.), dose: 50.0 mg/kg/injection, schedule: Q07DX005 (ip), vehicle: Klucel (hydroxypropylcellulose) (HPC)) 71 % of control; (endpoint: median tumor weight (est.), dose: 100.0 mg/kg/injection, schedule: Q07DX005 (ip), vehicle: Klucel (hydroxypropylcellulose) (HPC)) 82 % of control and 95 % of control.

Regarding `CN1CCN(CN2C(=O)C3C4C=CC(C3C2=O)C2C3C(=O)N(CN5CCN(C)CC5)C(=O)C3C42)CC1` (stereo not drawn), the T/C by setting is: (endpoint: median tumor weight change, dose: 21.6 mg/kg/injection, schedule: Q01DX005 (ip), vehicle: water) 98 % of control; (endpoint: median tumor weight change, dose: 24.8 mg/kg/injection, schedule: Q01DX005 (ip), vehicle: water) 84 % of control; (endpoint: median tumor weight change, dose: 36.0 mg/kg/injection, schedule: Q01DX005 (ip), vehicle: water) 70 % of control; (endpoint: median tumor weight change, dose: 41.4 mg/kg/injection, schedule: Q01DX005 (ip), vehicle: water) 25 % of control; (endpoint: median tumor weight change, dose: 60.0 mg/kg/injection, schedule: Q01DX005 (ip), vehicle: water) 54 % of control; (endpoint: median tumor weight change, dose: 69.0 mg/kg/injection, schedule: Q01DX005 (ip), vehicle: water) 23 % of control. For the same molecule, the T/C runs as follows: (endpoint: median tumor weight change, dose: 100.0 mg/kg/injection, schedule: Q01DX005 (ip), vehicle: water) 21 % of control; (endpoint: median tumor weight change, dose: 108.0 mg/kg/injection, schedule: Q01DX001 (ip), vehicle: water) 33 % of control; (endpoint: median tumor weight change, dose: 123.9 mg/kg/injection, schedule: Q01DX001 (ip), vehicle: water) 33 % of control.
